In this assay the test system is twitch of the extensor digitorum. The assay is described as follows: Neuromuscular blocking potency and duration in anesthetized rhesus monkeys. The conditions noted are these: in vivo, comparable level of neuromuscular blockade. It is filed as in vivo, rhesus monkeys (Macaca mulatta). The protocol:
Experiments were approved by the Institutional Animal Care and Use Committee of Weill Medical College of Cornell University (New York, N.Y.) and of Albany Medical College (Albany, N.Y.), where the studies were conducted. A colony of 10 adult male monkeys (Macaca mulatta) weighing 8-18 kg was studied at ˜6 week intervals. Animals were housed and cared for in accordance with the Guide for Care and Use of Laboratory Animals (National Research Council, Washington, D.C.). They were fed a standard Old World monkey diet, enriched with fruits and vegetables, and other dietary novelties and were followed throughout the study to verify normal health by physical examination, body weight, and clinical laboratory studies (Complete Blood Count, Blood Urea Nitrogen and creatinine, and liver function tests).
On the day of each study, monkeys received ketamine (7-10 mg/kg i.m.) followed by tracheal intubation under topical anesthesia with 4% lidocaine. Ventilation was controlled at 10 mL/kg and 20 breaths/min with isoflurane (1.0-2.0%) and N2O/O2 (2:1 mixture). Ringers lactate was administered at ˜10 ml kg^−1 h^−1. Arterial pressure was monitored from a femoral, superficial tibial, or radial (22 gauge) cannula. Heart rate was measured by tachograph from the arterial pulse wave. Core temperature was kept at 36.5-38.0° C. by warming blankets. Electrocardiogram and pulse oximetry were monitored continuously.
Needle electrodes (25 gauge) transmitting square-wave pulses of 0.2 msec duration at supramaximal voltage which were generated by a Grass S-88 stimulator (Grass Instruments, Quincy, Mass.) were placed at the peroneal nerve at the knee to elicit twitch responses of the extensor digitorum of the foot at 0.15 Hz. A small slip (10-20%) of the tendon was dissected free under sterile technique and tied to a Grass FT 10 force transducer (Grass Instruments, Quincy, Mass.) at a baseline tension of 50 gm. Train-of four stimulation (TOF, 2 Hz for 2 sec) was interposed at appropriate points, especially 1-2 min prior to NMBA dosing and following recovery of twitch to 95% of baseline, where TOF was subsequently evaluated every 1-2 min.
Recordings of circulatory and neuromuscular data were made on a Grass 7B polygraph (Grass Instruments). A baseline period of 15-20 min was allowed for stabilization of recordings prior to dosing.^2
Dose-response curves for twitch blockade by gantacurium, CW 002, CW 011, cisatracurium, CW002-Cys, NB 938-69, NB 1064-81, NB 802-17 (CW 001), NB 832-65, and NB 1163-79, structures of which are all shown above, were generated as follows. […] Successive doses were separated by at least three estimated half lives beyond complete recovery of the previous dose to TOF of 110-120%, which is normal for these monkeys. Only the first one or two doses yielding 5 to 99% blockade were included from any single experiment for computation of dose-response data.
Comparative studies of spontaneous recovery versus antagonism/reversal were done at least 3 estimated half-lives following dose-response studies.
ED 50 and ED 95 were computed from the regression of log dose vs. the logit of percentage blockade of twitch.
CW002-Cys, the L-cysteine adduct of CW 002, was available in limited quantity and was administered in cumulative fashion to three animals to compare approximate potency and duration of effect versus its parent compound CW 002.

Molecules are shown by their SMILES.

In the case of `COc1ccc(C[C@@H]2c3cc(OC)c(OC)cc3CC[N@@+]2(C)CCCOC(=O)/C=C\C(=O)OCCC[N@+]2(C)CCc3cc(OC)c(OC)cc3[C@H]2Cc2cc(OC)c(OC)c(OC)c2)cc1OC` [CW 011], the “potency relative to CW 002” value is recorded as “approximately twice” and the “potency relative to gantacurium” value is reported as “four times”.

(Values after patent publication US8592451B2, “Reversible nondepolarizing neuromuscular blockade agents and methods for their use” (Cornell University, priority 2009, dated 2013).)
